Test systems include A498 renal; ACHN renal; CCRF-CEM leukemia; EKVX NSCLC; HCT-15 colon; HOP-62 NSCLC; HT29 colon; MCF7 breast; MDA-MB-231 breast; MDA-MB-435; MDA-N; NCI-H460 lung; NCI-H522 lung; SK-MEL-28 melanoma; SK-MEL-5 melanoma; SN12C renal; SNB-75 CNS; SR leukemia; T-47D breast; UACC-62 melanoma.
What all share (assay): NCI-60 cell line screen, 48 h

From PubChem BioAssay (NCI) come the findings set out here.

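Five compound concentrations were applied to cells in 96-well plates for 48 hours; endpoints were derived by simple linear interpolation of the resulting dose-response curve. TGI is the concentration that stops growth completely.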

Consider `O=c1oc2cc(O)ccc2c(O)c1C(c1ccccn1)c1c(O)c2ccc(O)cc2oc1=O`, for which the TGI in the experiment with A498 renal, in the experiment with ACHN renal, in the experiment with CCRF-CEM leukemia, in the experiment on EKVX NSCLC, in the experiment on HCT-15 colon and with HOP-62 NSCLC was more than 100 µM throughout. Besides, the TGI with HT29 colon, with MCF7 breast, with MDA-MB-231 breast, in the experiment with MDA-MB-435, in the experiment on MDA-N and in the experiment with NCI-H460 lung was more than 100 µM in each case. Moreover, the TGI with NCI-H522 lung, with SK-MEL-28 melanoma, in the experiment with SK-MEL-5 melanoma, in the experiment with SN12C renal, in the experiment on SNB-75 CNS and in the experiment with SR leukemia was more than 100 µM throughout. Besides, the TGI with T-47D breast and with UACC-62 melanoma was more than 100 µM each time.
On to `Cc1ccc(S(=O)(=O)NC(=O)NCC(=O)NCC(=O)O)cc1`, for which the TGI in the experiment with A498 renal, in the experiment with ACHN renal, in the experiment with CCRF-CEM leukemia, in the experiment on EKVX NSCLC, in the experiment on HCT-15 colon and in the experiment with HOP-62 NSCLC was more than 100 µM in each case. The TGI with HT29 colon, in the experiment with MCF7 breast, in the experiment with MDA-MB-231 breast, in the experiment with MDA-MB-435, with MDA-N and in the experiment on NCI-H460 lung was more than 100 µM in each case. Moreover, the TGI with NCI-H522 lung, in the experiment on SK-MEL-28 melanoma, with SK-MEL-5 melanoma, in the experiment with SNB-75 CNS, in the experiment with SR leukemia and in the experiment with T-47D breast was more than 100 µM each time. This compound displayed a TGI in the experiment on UACC-62 melanoma of more than 100 µM.
`CCC(CC)C(=O)OC[n+]1cccc(-c2c(COC(=O)NC(C)C)c(COC(=O)NC(C)C)c3n2CCC3)c1`: the TGI in the experiment on A498 renal, in the experiment on ACHN renal, with CCRF-CEM leukemia, in the experiment with EKVX NSCLC, with HCT-15 colon and in the experiment on HOP-62 NSCLC was more than 100 µM in each case. Besides, the TGI in the experiment on HT29 colon, in the experiment on MCF7 breast, with MDA-MB-231 breast, in the experiment on MDA-MB-435, in the experiment with MDA-N and in the experiment with NCI-H460 lung was more than 100 µM throughout. The TGI with NCI-H522 lung, in the experiment with SK-MEL-28 melanoma, with SK-MEL-5 melanoma, with SN12C renal, with SNB-75 CNS and in the experiment on SR leukemia was more than 100 µM each time. In addition, the TGI with T-47D breast and with UACC-62 melanoma was more than 100 µM each time.
On to `CC(=O)OCC1OC(n2c3c(c(-c4ccc(Cl)cc4)c(C#N)c2=S)C(=O)CC(C)(C)C3)C(OC(C)=O)C(OC(C)=O)C1OC(C)=O` (stereo not given), for which the TGI with A498 renal is 87.9 µM; in the experiment with ACHN renal it was more than 100 µM; in the experiment on CCRF-CEM leukemia, more than 100 µM; in the experiment on HCT-15 colon it was 53.2 µM; in the experiment on HOP-62 NSCLC it was more than 100 µM; with HT29 colon it was more than 72.2 µM. For the same compound, the TGI was more than 95.3 µM in the experiment with MCF7 breast; 37 µM with MDA-MB-231 breast; more than 69.6 µM with MDA-MB-435; more than 54.8 µM in the experiment with MDA-N; more than 100 µM with NCI-H460 lung; more than 58.1 µM in the experiment on NCI-H522 lung. In addition, the TGI is 65.9 µM with SK-MEL-28 melanoma; 48.2 µM with SK-MEL-5 melanoma; more than 53.4 µM in the experiment with SN12C renal; 44.3 µM with SNB-75 CNS; more than 100 µM with SR leukemia; more than 27.7 µM with T-47D breast. In the experiment on UACC-62 melanoma, this compound yielded a TGI of 27.8 µM.
As to `CC1=CCC[C@@](C)(O)[C@@H]2C[C@H]3C(CSc4ccccc4)C(=O)O[C@H]3[C@@H](O2)[C@H](C)CCC1` (stereo not given in full), the TGI with A498 renal is 45 µM; with ACHN renal, 25.5 µM; in the experiment with CCRF-CEM leukemia it was more than 100 µM; in the experiment with EKVX NSCLC, 63.2 µM; in the experiment on HCT-15 colon, 67.9 µM; in the experiment with HOP-62 NSCLC, 34.5 µM. Moreover, the TGI is 29.4 µM in the experiment on MCF7 breast; more than 100 µM with MDA-MB-231 breast; 72 µM in the experiment on MDA-MB-435; 86.2 µM in the experiment on MDA-N; 20.4 µM in the experiment with NCI-H460 lung; 35.9 µM in the experiment with NCI-H522 lung. Further, the TGI is 52.9 µM in the experiment on SK-MEL-28 melanoma; 38.3 µM in the experiment on SK-MEL-5 melanoma; more than 100 µM in the experiment on SN12C renal; 31.1 µM in the experiment on SNB-75 CNS; more than 100 µM with SR leukemia; 93.7 µM with T-47D breast. The compound also yielded a TGI in the experiment with UACC-62 melanoma of 34.1 µM.
For the compound `Cn1cc2c(=O)n3ncn(-c4ccc(Br)cc4)c3nc2n1`, the TGI in the experiment on A498 renal, in the experiment on ACHN renal, in the experiment on CCRF-CEM leukemia, with EKVX NSCLC, with HCT-15 colon and with HT29 colon was more than 100 µM throughout. The TGI with MCF7 breast, with MDA-MB-231 breast, with MDA-MB-435, with MDA-N, in the experiment with NCI-H460 lung and in the experiment with NCI-H522 lung was more than 100 µM in each case. Besides, the TGI in the experiment on SK-MEL-28 melanoma, with SK-MEL-5 melanoma, in the experiment on SN12C renal, in the experiment with SNB-75 CNS, in the experiment with SR leukemia and with T-47D breast was more than 100 µM in each case. The same compound displayed a TGI with UACC-62 melanoma of more than 100 µM.
Consider `COc1cc(/C=C2/SC(c3ccccc3)N(c3ccc(Cl)cc3)C2=O)cc(OC)c1OC` (stereo not given), for which the TGI was more than 100 µM in the experiment on A498 renal; more than 100 µM in the experiment with ACHN renal; more than 44.8 µM in the experiment with CCRF-CEM leukemia; more than 100 µM in the experiment with EKVX NSCLC; more than 100 µM in the experiment with HCT-15 colon; more than 100 µM in the experiment on HOP-62 NSCLC. The TGI is more than 100 µM in the experiment on HT29 colon; more than 100 µM in the experiment with MCF7 breast; more than 100 µM with MDA-MB-231 breast; 24.2 µM in the experiment with MDA-MB-435; 31.8 µM in the experiment with MDA-N; more than 100 µM in the experiment on NCI-H460 lung. Also, the TGI in the experiment on NCI-H522 lung, in the experiment with SK-MEL-28 melanoma, with SN12C renal, in the experiment with SNB-75 CNS, in the experiment on SR leukemia and in the experiment on T-47D breast was more than 100 µM each time. The compound further yielded a TGI in the experiment on UACC-62 melanoma of more than 100 µM.
